Results taken from EP2386565A2, “Compounds and methods to inhibit or augment an inflammatory response” (Cambridge Enterprise Ltd., priority 1999, dated 2000).
“And” between values parts separate entries of the source, which are not always exact repeats. Equal values may be shown once. Positions of bridges follow the written chain, without caps; N, C: chain ends. Non-standard residues stand in square brackets, D forms with d. Residues, ends and D or L forms follow the SMILES beside them.

How the values were obtained:
[1] = tested on: ovalbumin-induced pulmonary inflammation, IgE, IL-4 and recall responses; assay: Ovalbumin-induced asthma / hypersensitivity model; type: in vivo, mice; conditions: Group 4: Ova on days 8, 15, 18, 21 & 35, treat BID 14 days, sacrifice day 35 (recent Ova challenge), 0 µg/ml Ova
[2] = tested on: MCP-1 induced calcium flux; assay: Intracellular calcium flux, MCP-1 as agonist; type: cell-based
[3] = tested on: TGFβ1 induced THP-1 migration; assay: THP-1 trans-well migration assay, TGFβ1 as non-chemokine control chemoattractant; type: cell-based, human; conditions: for % inhibition at 100 µM versus TGFβ1: THP-1 migration, agent at 100 µM, n.s. = no statistically significant inhibition
Experimental: Any method suitable for counting cells can be used, for example, counting with a hemocytometer, incubation of the cells with MTT (see above), or FACS analysis. A negative control assay is also performed, using TGF-β or another non-chemokine chemoattractant (e.g., IL1β or TNFα). To assess whether the agent is cytotoxic, the same concentrations of agent are incubated with THP-1 cells. Agents which 1) are not cytotoxic at levels which inhibit migration, 2) are ineffective at inhibiting the negative control-induced migration, and 3) reduce or inhibit chemokine-induced THP-1 migration, are agents which fall within the scope of the invention.
For this assay, THP-1 cells were maintained at a density of 4 × 10^5 cells per ml in RPMI-1640 supplemented with 10% fetal calf serum + 20 µM 2-mercaptoethanol. Chemotaxis was induced in a 96-well disposable chemotaxis chamber fitted with a 5 µM polycarbonate filter (PVP free, ChemoTX, Neuroprobe Inc., Cabin John). Twenty-nine µl of chemoattractant (recombinant human chemokine; 50 ng/ml, i.e., 5.9 nM) or control (100 ng/ml TGFβ) was added to the lower compartment of each well. The framed filter was aligned with the holes in the corner of the filter frame and placed over the wells.
Five × 10^4 THP-1 cells in 25 µl of RPMI-1640 were added to the upper compartment. Peptides were dissolved in Milli Q water and then serially diluted in culture medium. […]
After incubation, the cells were gently removed from the top of the filter with a pipette, 20 µl of 20 mM EDTA in PBS was added into each top well, and the mixture was incubated for 20 minutes at 4°C. […] A standard curve was prepared to accurately quantify the number of THP-1 cells that had migrated. […] Absorbance of converted dye was measured at a wavelength of 595 nm using an ELISA plate reader. The number of cells that had migrated in each well was determined by interpolation of the standard curve.
To investigate the receptor specificity of peptide 3 inhibition, the ED50 was determined for peptide 3(1-12)[MCP-1] […]

[4] = tested on: IL8 induced THP-1 migration; assay: THP-1 trans-well migration assay, IL8 as chemoattractant; type: cell-based, human
Experimental: To determine whether an agent inhibits a chemokine-induced activity, such as macrophage recruitment, varying amounts of the agent are mixed with cells in the presence of a known chemoattractant. For example, a range of known concentrations of an agent, e.g., a chemokine peptide, is incubated with a defined number (e.g., 10^4 - […]) of human THP-1 monocyte cells in individual wells of the top compartment of a trans-well plate. Chemokine (such as MCP-1, MIP1α, IL8 or SDF-1α), at a concentration known to cause significant migration of THP-1 cells in the trans-well migration assay, is placed in the lower compartment (Figure 1). […] A standard curve consisting of a two-fold dilution series of THP-1 cells (in 29 µl) is prepared to accurately quantify the number of cells that have migrated. […] Absorbance of converted dye is measured at a wavelength of 595 nm using an ELISA plate reader. The number of migrated cells in each well is then determined by interpolation of the standard curve (see also Imai et al.,J. Biol. Chem., 272, 15036 (1997)). […]
After incubation, the cells were gently removed from the top of the filter with a pipette, 20 µl of 20 mM EDTA in PBS was added into each top well, and the mixture was incubated for 20 minutes at 4°C. […] A standard curve was prepared to accurately quantify the number of THP-1 cells that had migrated. […]

[5] = inhibition of THP-1 migration, n.s. = not statistically significant

SMILES | IL-4 Assays, pg/ml IL-4, individual mice m1-m4 [1] | Total IgM + IgG (1 week splenocyte cultures), individual mice m1-m4 ([1]; listed as CRD-Leu4Ile11Cys13 peptide 3(3-12)[MCP]) | MCP-1 induced calcium flux (in words) [2] | % inhibition at 100 µM versus TGFβ1 [3] | % inhibition at 100 µM versus TGFβ1 ([3]; listed as peptide 1[MCP-1]) | ED50 (µM) versus TGFβ1 [3, 5] | % inhibition at 100 µM versus IL8 ([4]; THP-1 migration, agent at 100 µM, n.s. or dash = no statistically significant inhibition) | ED50 (µM) versus IL8 [4, 5]
CC[C@@H](C)[C@H]1NC(=O)[C@@H](CCC(N)=O)NC(=O)[C@H](N)CSSC[C@H](C(N)=O)NC(=O)[C@@H](CC(C)C)NC(=O)[C@@H](CC(=O)O)NC(=O)[C@H]2CCCN2C(=O)[C@@H](CCCCN)NC(=O)[C@@H](CCC(N)=O)NC(=O)[C@@H](CCCCN)NC(=O)[C@@H](Cc2c[nH]c3ccccc23)NC1=O (H-[dC][dQ][dI][dW][dK][dQ][dK][dP][dD][dL][dC]-NH2; disulfide 1-11) | 2.61 pg/mL and 1.11 pg/mL and 5.08 pg/mL and 2.88 pg/mL | 15.32 and 25.86 and 14.87 and 12.60 | did not block | – | – | – | – | –
CC[C@H](C)[C@H](NC(=O)[C@H](C)NC(=O)[C@H](CC(=O)O)NC(=O)[C@@H]1CCCN1C(=O)[C@H](CCC(N)=O)NC(=O)[C@H](C)N)C(=O)N[C@@H](CC(N)=O)C(=O)N[C@@H](C)C(=O)N1CCC[C@H]1C(=O)N[C@H](C(=O)N[C@H](C(=O)N[C@@H](CS)C(=O)N[C@@H](CS)C(=O)O)[C@@H](C)O)C(C)C [Peptide 1] (H-AQPDAINAPVTCC-OH; N-terminus and C-terminus assumed) | – | – | – | n.s. | did not significantly inhibit | n.s. | n.s. | n.s.
